From ChEMBL document CHEMBL1201862, “PubChem BioAssay data set” (2004) come the findings set out here.

The structures appear in SMILES notation. The source made the active and inactive calls. Unless noted, the calls are words filed in the database; no cut-off is given here.

For experiment [1], the target named is T1, Carboxy-terminal domain RNA polymerase II polypeptide A small phosphatase 1 (Homo sapiens, UniProt Q9GZU7).
T1 sequence (Q9GZU7 whole entry): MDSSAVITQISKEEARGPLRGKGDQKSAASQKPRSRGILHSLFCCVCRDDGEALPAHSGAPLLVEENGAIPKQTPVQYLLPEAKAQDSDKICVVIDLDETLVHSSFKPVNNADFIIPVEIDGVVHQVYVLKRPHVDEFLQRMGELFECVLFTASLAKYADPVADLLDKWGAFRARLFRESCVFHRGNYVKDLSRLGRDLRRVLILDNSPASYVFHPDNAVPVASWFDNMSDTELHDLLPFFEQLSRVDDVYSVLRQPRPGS
The experiment in a line: CTDSP1 inhibitors, concentration-response, biochemical, absorbance readout, ultra-high-throughput screen actives (AID 540297). In kind it is functional.

Another experiment concerns the target ORF 73 (Human herpesvirus 8, UniProt O40947). Briefly: KSHV LANA DNA-binding disruption – biochemical, fluorescence polarization, cherry-picked samples, dose response (AID 504725).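 Further: fluorescence polarization of a labeled DNA duplex reporting LANA DNA binding; potency is for inhibitors that block LANA binding to the DNA.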 The arrangement: species or system Human gammaherpesvirus 8.
The nature of experiment [2]: HEK-293T cell viability reduction – luminescence, B-cell screen hits, cytotoxicity control for BCR NF-kB inhibitor project, dose response (AID 489021).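 Further: HEK-293T cells carrying an NF-kB luciferase reporter; cells exposed to compound for about 14 hours before viability readout.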 The class given is functional, cell-based.
For experiment [3], the target named is T2, Heat shock factor protein 1 (Mus musculus, UniProt P38532).
T2 sequence (P38532 whole entry): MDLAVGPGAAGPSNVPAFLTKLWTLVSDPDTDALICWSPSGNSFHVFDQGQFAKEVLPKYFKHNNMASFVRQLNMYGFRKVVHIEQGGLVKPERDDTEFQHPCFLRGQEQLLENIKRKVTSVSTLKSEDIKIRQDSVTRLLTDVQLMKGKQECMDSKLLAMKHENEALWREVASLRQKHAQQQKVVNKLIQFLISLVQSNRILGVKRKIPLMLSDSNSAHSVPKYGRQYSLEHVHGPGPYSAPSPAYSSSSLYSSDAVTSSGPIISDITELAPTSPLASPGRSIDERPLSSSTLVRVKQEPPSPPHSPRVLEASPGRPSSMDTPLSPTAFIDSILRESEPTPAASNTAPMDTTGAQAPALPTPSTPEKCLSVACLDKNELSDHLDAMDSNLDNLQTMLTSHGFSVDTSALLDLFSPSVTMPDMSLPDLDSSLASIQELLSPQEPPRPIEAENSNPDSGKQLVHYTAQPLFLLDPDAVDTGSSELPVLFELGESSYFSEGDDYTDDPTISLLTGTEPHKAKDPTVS
The experiment in a line: enhancement of HSF1-driven luciferase signal – cell-based, NIH3T3, luminescence, dose retest, confirmation (AID 435004).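 Further: stress induced by proteasome inhibitor MG132 added 30 min after compound; luciferase reporter driven by HSF1 response element in NIH3T3 cells; actives raise luminescence as potentiators of the MG132 stress response.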 In kind it is functional.

Experiment [4] is described as follows: loss of viability in HepG2 cells – cell-based, CellTiter-Glo, cherry-picked, cytotoxicity control for Shn3 inhibitor project, dose response (AID 624134). In kind it is functional. For orientation: Cellular ATP, detected with luciferase, serves as a proxy for viable cell number.
For experiment [5], the target named is E3 ubiquitin-protein ligase Mdm2/Protein Mdm4 (Homo sapiens, UniProt O15151+Q00987). Briefly: disruption of Mdm2/MdmX protein binding – luminescence detection, dose response (AID 504593). In kind it is functional.
Experiment [6] in a line: reduction of Shn3 3'UTR-driven luciferase in osteoblasts – cell-based, Clone20 osteoblasts, firefly luciferase, cherry-picked, dose response (AID 624132).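 Further: firefly luciferase luminescence from reporter carrying the Shn3 3'UTR in osteoblasts.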 In kind it is functional.
A short description of experiment [7]: non-specific 3'UTR reporter inhibition in Clone20-Shn3RL – cell-based, Renilla luciferase, cherry-picked, counter-screen for Shn3 inhibitor project, dose response (AID 624133). The class given is functional. Background: A counterscreen serves to expose hits that act by an unwanted route or on another target.
The target in experiment [8] is Female germline-specific tumor suppressor gld-1 (Caenorhabditis elegans, UniProt Q17339). Briefly: blockers of GLD-1/TGE RNA complex formation – biochemical, fluorescence polarization, C. elegans, dose response (AID 2802).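 Further: fluorescence polarization of labeled TGE RNA bound by purified gld-1 protein.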
A further experiment has as its target Protein Rev (Human immunodeficiency virus type 1 group M subtype B (isolate HXB2)(HIV-1), UniProt P04618). Briefly: blockers of HIV Rev/RRE RNA complex – biochemical, fluorescence polarization, HIV-1, dose response (AID 434976). Also noted: species or system Human immunodeficiency virus 1. For orientation: Fluorescence polarisation rises when a labelled molecule tumbles more slowly, as on binding a larger partner.

Experiment [9] addresses Alpha-2A adrenergic receptor (Homo sapiens, UniProt P08913). The experiment in a line: Late-stage radioligand binding dose response assay to identify inhibitors of NADPH oxidase 1 (NOX1): PDSP screen Ki Set 2. [Related pubchem assays (depositor defined):AID1792, AID1796, AID1823, AID2532, AID2538, AID2539, AID2541, AID2545, AID2556, AID2664, AID2752, AID2773, AID2808, AID2819, AID434953, AID434974, AID434992, AID434993, AID434997 ….

Experiment [10] concerns the target Alpha-2C adrenergic receptor (Homo sapiens, UniProt P18825). Described as above.
For experiment [11], the target named is T3, Rac GTPase-activating protein 1 (Homo sapiens, UniProt Q9H0H5).
T3 sequence (Q9H0H5 whole entry): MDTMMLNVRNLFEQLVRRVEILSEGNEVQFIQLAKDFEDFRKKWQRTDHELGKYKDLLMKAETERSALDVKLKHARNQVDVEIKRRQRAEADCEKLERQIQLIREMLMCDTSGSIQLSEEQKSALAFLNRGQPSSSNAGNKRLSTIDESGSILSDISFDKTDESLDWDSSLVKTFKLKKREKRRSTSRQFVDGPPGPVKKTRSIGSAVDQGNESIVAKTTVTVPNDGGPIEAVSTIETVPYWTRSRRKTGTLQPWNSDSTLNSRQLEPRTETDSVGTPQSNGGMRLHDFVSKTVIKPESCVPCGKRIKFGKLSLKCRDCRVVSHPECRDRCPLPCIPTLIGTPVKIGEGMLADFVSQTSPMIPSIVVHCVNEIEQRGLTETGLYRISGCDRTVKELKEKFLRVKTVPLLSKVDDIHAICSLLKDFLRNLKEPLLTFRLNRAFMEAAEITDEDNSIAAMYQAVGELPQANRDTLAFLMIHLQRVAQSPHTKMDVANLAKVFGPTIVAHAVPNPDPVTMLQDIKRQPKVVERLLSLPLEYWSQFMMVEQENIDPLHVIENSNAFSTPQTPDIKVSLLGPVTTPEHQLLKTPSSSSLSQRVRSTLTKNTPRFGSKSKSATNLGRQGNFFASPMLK
Briefly: blockers of MgcRacGAP-driven Rac1 GTP hydrolysis – biochemical, ADP Hunter fluorescence, primary and confirmatory, confirmation (AID 624330). In kind it is functional.

Experiment [12] addresses Muscarinic acetylcholine receptor M2 (Homo sapiens, UniProt P08172). The experiment in a line: Late-stage radioligand binding dose response assay to identify inhibitors of NADPH oxidase 1 (NOX1): PDSP screen Ki Set 2. [Related pubchem assays (depositor defined):AID1792, AID1796, AID1823, AID2532, AID2538, AID2539, AID2541, AID2545, AID2556, AID2664, AID2752, AID2773, AID2808, AID2819, AID434953, AID434974, AID434992, AID434993, AID434997 ….

The next experiment concerns the target D(3) dopamine receptor (Homo sapiens, UniProt P35462). The description is as above.
A short description of experiment [13]: viability of uninfected HEp-2 cells – cell-based, HTS, cytotoxicity control for RSV inhibitor project, dose response (AID 2410). The class given is functional. The settings on record: human respiratory syncytial virus.
The target in experiment [14] is Lysosomal acid glucosylceramidase (Homo sapiens, UniProt P04062). The experiment in a line: Dose response cell-based high throughput screening assay to identify enhancers of beta-glucosidase activity. [Related pubchem assays: 784 ]. The class given is functional.
For experiment [15], the target named is 5-hydroxytryptamine receptor 2B (Homo sapiens, UniProt P41595). Briefly: Late-stage radioligand binding dose response assay to identify inhibitors of NADPH oxidase 1 (NOX1): PDSP screen Ki Set 2. [Related pubchem assays (depositor defined):AID1792, AID1796, AID1823, AID2532, AID2538, AID2539, AID2541, AID2545, AID2556, AID2664, AID2752, AID2773, AID2808, AID2819, AID434953, AID434974, AID434992, AID434993, AID434997 ….

For experiment [16], the target named is Alpha-2B adrenergic receptor (Homo sapiens, UniProt P18089). Described as above.
Another experiment concerns HT-29. The experiment in a line: Late-stage luminescence-based cell-based dose response assay to identify inhibitors of NADPH oxidase 1 (NOX1): Cytotoxicity assay 2. In kind it is functional. As to conditions: Homo sapiens.
In experiment [17] the target is Kappa-type opioid receptor (Homo sapiens, UniProt P41145). The experiment in a line: Late-stage radioligand binding dose response assay to identify inhibitors of NADPH oxidase 1 (NOX1): PDSP screen Ki Set 2. [Related pubchem assays (depositor defined):AID1792, AID1796, AID1823, AID2532, AID2538, AID2539, AID2541, AID2545, AID2556, AID2664, AID2752, AID2773, AID2808, AID2819, AID434953, AID434974, AID434992, AID434993, AID434997 ….

Experiment [18] addresses Muscarinic acetylcholine receptor M1 (Homo sapiens, UniProt P11229). Described as above.
In experiment [19] the target is Glyceraldehyde-3-phosphate dehydrogenase (Homo sapiens, UniProt P04406).
The target in experiment [20] is Alkaline phosphatase, placental type (Homo sapiens, UniProt P05187). The experiment in a line: human placental alkaline phosphatase inhibition – biochemical, luminescence, confirmation (AID 1512). The class given is functional.

The IC50 is the point on the concentration scale where inhibition reaches its midpoint. Broadly, the AC50 is the concentration giving half of the maximal activity seen. In general, EC50 refers to the concentration needed to bring the measured effect to its halfway point. One may read the Ki as a measure of affinity in units of concentration, obtained from inhibition or displacement. A word on the CC50: it is the concentration giving 50% cytotoxicity.

Chain of 5-hydroxytryptamine receptor 2B (P41595 whole entry): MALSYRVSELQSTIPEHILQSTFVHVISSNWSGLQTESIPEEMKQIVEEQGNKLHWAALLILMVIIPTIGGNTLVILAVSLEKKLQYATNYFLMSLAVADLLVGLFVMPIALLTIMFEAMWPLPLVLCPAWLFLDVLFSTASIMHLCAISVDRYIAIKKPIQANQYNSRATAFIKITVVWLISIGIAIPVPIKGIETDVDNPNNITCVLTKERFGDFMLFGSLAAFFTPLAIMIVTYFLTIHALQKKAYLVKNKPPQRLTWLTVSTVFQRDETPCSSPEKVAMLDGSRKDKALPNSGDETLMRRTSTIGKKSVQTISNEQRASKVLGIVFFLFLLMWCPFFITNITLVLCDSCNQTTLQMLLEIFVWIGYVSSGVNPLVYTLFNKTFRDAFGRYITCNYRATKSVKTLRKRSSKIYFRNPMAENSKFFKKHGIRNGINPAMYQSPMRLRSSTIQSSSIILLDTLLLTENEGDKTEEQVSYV
Chain of Protein Rev (P04618 whole entry): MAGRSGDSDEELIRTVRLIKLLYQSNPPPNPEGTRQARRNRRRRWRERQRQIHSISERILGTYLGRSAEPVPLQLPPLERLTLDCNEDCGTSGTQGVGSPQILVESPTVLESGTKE
Chain of Alpha-2B adrenergic receptor (P18089 whole entry): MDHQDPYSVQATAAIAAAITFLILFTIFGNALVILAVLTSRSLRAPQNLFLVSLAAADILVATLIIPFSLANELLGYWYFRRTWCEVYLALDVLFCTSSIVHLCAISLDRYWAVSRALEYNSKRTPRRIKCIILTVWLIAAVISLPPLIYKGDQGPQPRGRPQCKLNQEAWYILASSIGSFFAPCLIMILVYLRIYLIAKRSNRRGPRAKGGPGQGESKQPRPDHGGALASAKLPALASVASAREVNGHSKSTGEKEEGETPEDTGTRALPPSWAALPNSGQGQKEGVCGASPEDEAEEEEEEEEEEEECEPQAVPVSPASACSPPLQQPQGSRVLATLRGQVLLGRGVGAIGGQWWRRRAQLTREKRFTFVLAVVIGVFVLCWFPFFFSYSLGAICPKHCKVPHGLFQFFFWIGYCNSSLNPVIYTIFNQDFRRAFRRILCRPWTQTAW
Chain of Alpha-2A adrenergic receptor (P08913 whole entry): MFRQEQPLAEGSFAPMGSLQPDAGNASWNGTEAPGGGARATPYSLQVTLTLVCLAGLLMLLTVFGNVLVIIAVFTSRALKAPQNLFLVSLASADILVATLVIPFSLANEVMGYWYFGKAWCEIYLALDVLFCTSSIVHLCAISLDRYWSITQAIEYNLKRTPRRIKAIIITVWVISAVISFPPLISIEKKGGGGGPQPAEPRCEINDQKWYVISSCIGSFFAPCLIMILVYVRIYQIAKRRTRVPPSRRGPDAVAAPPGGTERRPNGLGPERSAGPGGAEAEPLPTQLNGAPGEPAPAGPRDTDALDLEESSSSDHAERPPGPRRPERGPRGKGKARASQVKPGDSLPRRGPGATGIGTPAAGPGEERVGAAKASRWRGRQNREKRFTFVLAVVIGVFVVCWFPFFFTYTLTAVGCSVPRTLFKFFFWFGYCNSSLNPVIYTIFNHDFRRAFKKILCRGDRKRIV
Chain of Female germline-specific tumor suppressor gld-1 (Q17339 whole entry): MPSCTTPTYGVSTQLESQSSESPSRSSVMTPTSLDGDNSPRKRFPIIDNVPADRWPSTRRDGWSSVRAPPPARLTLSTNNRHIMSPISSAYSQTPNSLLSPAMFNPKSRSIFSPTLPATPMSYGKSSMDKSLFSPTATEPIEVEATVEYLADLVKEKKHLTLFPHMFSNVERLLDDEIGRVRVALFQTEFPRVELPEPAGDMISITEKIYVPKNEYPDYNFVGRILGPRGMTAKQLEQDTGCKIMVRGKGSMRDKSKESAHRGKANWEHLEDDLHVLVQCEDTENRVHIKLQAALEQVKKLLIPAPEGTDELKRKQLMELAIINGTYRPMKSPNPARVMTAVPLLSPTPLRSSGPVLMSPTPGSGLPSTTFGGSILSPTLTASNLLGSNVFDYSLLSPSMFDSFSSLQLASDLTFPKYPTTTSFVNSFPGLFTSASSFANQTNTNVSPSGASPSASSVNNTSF
Chain of Alkaline phosphatase, placental type (P05187 whole entry): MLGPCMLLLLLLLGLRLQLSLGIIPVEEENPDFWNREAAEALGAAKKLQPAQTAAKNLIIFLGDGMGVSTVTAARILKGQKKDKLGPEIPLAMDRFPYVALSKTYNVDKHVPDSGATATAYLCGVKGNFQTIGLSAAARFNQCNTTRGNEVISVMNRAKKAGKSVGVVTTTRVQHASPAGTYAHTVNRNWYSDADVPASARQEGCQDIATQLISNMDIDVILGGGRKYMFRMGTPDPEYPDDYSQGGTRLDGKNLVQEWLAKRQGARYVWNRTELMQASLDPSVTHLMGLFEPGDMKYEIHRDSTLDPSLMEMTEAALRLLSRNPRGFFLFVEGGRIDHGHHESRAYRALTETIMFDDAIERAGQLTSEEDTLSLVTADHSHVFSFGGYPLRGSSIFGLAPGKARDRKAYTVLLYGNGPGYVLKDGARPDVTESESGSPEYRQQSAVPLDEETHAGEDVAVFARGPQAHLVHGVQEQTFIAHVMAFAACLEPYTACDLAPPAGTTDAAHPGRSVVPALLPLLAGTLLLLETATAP
Chain of Glyceraldehyde-3-phosphate dehydrogenase (P04406 whole entry): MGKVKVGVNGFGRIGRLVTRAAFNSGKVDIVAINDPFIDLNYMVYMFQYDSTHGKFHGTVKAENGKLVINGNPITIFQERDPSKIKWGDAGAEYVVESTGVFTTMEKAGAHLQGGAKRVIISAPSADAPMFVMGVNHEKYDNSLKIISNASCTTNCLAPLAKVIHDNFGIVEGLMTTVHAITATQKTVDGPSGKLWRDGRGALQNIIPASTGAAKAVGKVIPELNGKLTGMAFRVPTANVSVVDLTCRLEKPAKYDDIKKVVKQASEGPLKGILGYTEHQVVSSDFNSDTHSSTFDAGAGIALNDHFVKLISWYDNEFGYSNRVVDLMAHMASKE
Chain of D(3) dopamine receptor (P35462 whole entry): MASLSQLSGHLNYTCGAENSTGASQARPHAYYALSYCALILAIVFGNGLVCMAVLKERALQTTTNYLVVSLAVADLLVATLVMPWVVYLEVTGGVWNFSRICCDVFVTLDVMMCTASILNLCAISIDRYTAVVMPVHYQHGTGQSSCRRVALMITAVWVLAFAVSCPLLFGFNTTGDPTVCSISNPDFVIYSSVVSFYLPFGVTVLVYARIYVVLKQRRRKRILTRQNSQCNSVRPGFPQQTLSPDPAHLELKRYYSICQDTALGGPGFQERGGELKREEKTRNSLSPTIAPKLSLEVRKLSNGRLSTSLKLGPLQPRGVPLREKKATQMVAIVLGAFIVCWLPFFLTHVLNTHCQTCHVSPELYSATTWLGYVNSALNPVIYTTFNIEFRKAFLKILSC
Chain of Kappa-type opioid receptor (P41145 whole entry): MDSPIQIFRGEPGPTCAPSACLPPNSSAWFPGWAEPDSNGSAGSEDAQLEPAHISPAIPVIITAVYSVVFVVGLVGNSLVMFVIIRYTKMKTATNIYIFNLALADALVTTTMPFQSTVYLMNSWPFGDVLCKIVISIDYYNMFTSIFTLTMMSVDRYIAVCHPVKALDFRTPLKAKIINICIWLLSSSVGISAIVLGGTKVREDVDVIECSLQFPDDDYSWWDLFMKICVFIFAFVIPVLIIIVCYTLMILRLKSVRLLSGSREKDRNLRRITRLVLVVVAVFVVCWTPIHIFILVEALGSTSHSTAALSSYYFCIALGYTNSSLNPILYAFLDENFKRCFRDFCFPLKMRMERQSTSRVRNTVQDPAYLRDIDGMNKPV
Chain of Alpha-2C adrenergic receptor (P18825 whole entry): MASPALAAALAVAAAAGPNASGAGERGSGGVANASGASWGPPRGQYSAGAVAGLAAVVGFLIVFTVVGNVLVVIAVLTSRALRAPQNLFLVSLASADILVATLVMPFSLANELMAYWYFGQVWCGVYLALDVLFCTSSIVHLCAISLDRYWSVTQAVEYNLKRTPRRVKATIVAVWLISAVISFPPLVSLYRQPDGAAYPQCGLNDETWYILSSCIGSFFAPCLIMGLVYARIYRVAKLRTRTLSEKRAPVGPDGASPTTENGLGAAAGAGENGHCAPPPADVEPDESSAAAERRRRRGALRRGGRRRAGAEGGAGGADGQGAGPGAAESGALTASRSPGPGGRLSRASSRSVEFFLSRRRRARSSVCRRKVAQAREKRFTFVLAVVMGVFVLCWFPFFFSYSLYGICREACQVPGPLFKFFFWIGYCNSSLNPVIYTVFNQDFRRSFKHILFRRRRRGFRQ
Chain of Muscarinic acetylcholine receptor M1 (P11229 whole entry): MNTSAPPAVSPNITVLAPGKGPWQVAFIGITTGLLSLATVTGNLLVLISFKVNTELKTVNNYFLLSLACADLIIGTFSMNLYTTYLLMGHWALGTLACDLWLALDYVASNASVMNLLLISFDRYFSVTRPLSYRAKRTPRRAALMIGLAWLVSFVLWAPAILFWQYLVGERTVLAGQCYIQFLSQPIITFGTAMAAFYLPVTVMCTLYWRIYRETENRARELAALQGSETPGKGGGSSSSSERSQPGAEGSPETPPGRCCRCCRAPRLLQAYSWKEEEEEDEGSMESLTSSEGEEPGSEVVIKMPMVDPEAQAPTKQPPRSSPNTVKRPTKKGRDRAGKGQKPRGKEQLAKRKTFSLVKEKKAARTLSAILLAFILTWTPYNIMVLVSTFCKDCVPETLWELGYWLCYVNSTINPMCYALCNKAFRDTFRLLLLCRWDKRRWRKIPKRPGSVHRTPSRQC

In the case of `N=C1/C(=C/c2ccc(-c3cccc(C(=O)O)c3)o2)C(=O)N=C2SC(CC(=O)N3CCOCC3)=NN12`, the IC50 in [1] was 3.21 µM (active). Further, on ORF 73, the AC50 was 67.7 µM (active).
In the case of `O=C1CCCc2c1[nH]c1ccc(CN3CCCCC3)cc21`, the IC50 in experiment [2] was > 80 µM (inactive).
Turning to `CCOC(=O)/C=C/C(=O)OCC(=O)NC(c1ccccc1)c1ccccc1`, in [3], the concentration for a half-maximal effect (EC50) was 13.4 µM (active). For the same molecule, the values for the AC50 in [4], in experiment [6] and in experiment [7] were > 70 µM (inactive), 5.14 µM (active) and 22 µM (active), respectively. Besides, the IC50 in experiment [5] is 3.28 µM (active).
`CCOC(=O)c1cc2c(ccn2C)n1CC(=O)N(Cc1ccccc1)c1ccc(F)cc1`: the values for the IC50 (in [8]; against Protein Rev) were > 59.6 µM (inactive) and > 75.4 µM (not active), respectively.
For `CC(=O)c1ccc2c(c1)Nc1ccccc1S2`, the Ki was > 10 µM (inactive) in experiment [9]; > 10 µM (inactive) in [10]; > 10 µM (inactive) in experiment [12]; > 10 µM (inactive) on D(3) dopamine receptor; 0.3 µM (active) in [15]; > 10 µM (inactive) in experiment [16]. The Ki in experiment [17] and in experiment [18] was > 10 µM (inactive) in each case. Besides, the IC50 in experiment [11] is 31.6 µM (active). The CC50 in [13] is 18.5 µM (active); in the experiment on HT-29, > 20 µM (not active). The EC50 in experiment [14] is > 50 µM (not active).
`O=C(NCCO)c1cc(-c2ccc(Cl)cc2Cl)n[nH]1`: the IC50 in experiment [19] is > 100 µM (not active); in [20], 21.1 µM (active).
